The text below walks through data of ChEMBL document CHEMBL5257066, “The discovery of cyclic γ-AApeptides as the promising ligands targeting EP2” (Bioorg Med Chem Lett, 2023).

One may read the pKd as the Kd on a negative log10 scale, so that one unit is a factor of ten.

pKd: −log10 of the molar value. The source made the active and inactive calls. No cut-off for these calls is given here.

The target in assay [1] is T1, Prostaglandin E2 receptor EP2 subtype (Homo sapiens, UniProt P43116). As to the kind of experiment: Binding affinity to human recombinant PTGER2 assessed as dissociation constant by high throughput fluorescence polarization assay. In general terms: Polarisation of emitted light reports the rotation of a fluorescent probe.
In assay [2] the target is T1, Prostaglandin E2 receptor EP2 subtype. As to the kind of experiment: Binding affinity to human recombinant PTGER2 by high throughput fluorescence polarization assay.

T1 sequence (P43116 whole entry): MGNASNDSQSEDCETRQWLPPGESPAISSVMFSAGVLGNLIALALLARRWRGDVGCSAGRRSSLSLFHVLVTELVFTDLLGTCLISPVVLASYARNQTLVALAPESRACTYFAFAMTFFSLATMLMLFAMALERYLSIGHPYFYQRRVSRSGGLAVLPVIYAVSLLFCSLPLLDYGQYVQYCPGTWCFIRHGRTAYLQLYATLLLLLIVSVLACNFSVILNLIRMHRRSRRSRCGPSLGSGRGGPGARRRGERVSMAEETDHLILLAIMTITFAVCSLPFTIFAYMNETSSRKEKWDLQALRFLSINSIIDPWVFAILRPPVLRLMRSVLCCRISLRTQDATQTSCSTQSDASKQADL

For the compound `CC(C)C[C@H]1CN(CC(=O)NCCC(=O)N[C@@H](CCCCNC(=S)Nc2ccc(-c3c4ccc(=O)cc-4oc4cc(O)ccc34)c(C(=O)O)c2)C(N)=O)C(=O)CCSCc2ccc(cc2)C(=O)N[C@@H](CCCCN)CN(C(=O)CCc2ccccc2)CC(=O)N[C@@H](CC(C)C)CN(C(=O)CCC2CCCCC2)CC(=O)N[C@@H](Cc2ccccc2)CN(C(=O)Cc2ccc3ccccc3c2)CC(=O)N1`, the pKd in assay [1] was 7.80.
In the case of `CC(C)C[C@H]1CN(CC(N)=O)C(=O)CCSCc2ccc(cc2)C(=O)N[C@@H](CC(C)C)CN(C(=O)CC2CC2)CC(=O)N[C@@H](CCCCN)CN(C(=O)CCc2ccccc2)CC(=O)N[C@@H](Cc2ccccc2)CN(C(=O)CCC2CCCCC2)CC(=O)N1`, the result in assay [2] was Active.
Take `CC(C)C[C@H]1CN(CC(N)=O)C(=O)CCSCc2ccc(cc2)C(=O)N[C@@H](CCCCN)CN(C(=O)CCc2ccccc2)CC(=O)N[C@@H](CC(C)C)CN(C(=O)CCC2CCCCC2)CC(=O)N[C@@H](Cc2ccccc2)CN(C(=O)Cc2ccc3ccccc3c2)CC(=O)N1`: the result in assay [2] was Active.
